These are literature values, as cited in US12059469B2, “Compositions and methods for wound treatment” (priority 2017, dated 2024).

By aqueous solubility is commonly meant how much of the substance goes into solution per volume.

Each structure is given as a SMILES string.

The subject of data set [1] is Wnt/β-catenin-mediated transcription. Particulars: through TNK 1 and 2 inhibition.
The test system of another data set is mouse ear punch wound. Particulars: topical application, dissolved in DMSO.

Consider `Oc1nc(-c2ccc(C(F)(F)F)cc2)nc2c1CSCC2` [XAV939, 3,5,7,8-Tetrahydro-2-[4-(trifluoromethyl)phenyl]-4H-thiopyrano[4,3-d]pyrimidin-4-one], for which the aqueous solubility is less than 1000 µg/mL. The Wnt/β-catenin-mediated transcription result in data set [1] is listed as “selectively inhibits”. Moreover, in the data set with mouse ear punch wound, the “fibrosis (scarring)” value is “reduced fibrosis” and the “rate of wound closure” value is reported as “significantly increased rate of wound closure”. For the same compound, the “effect on NF-κK” value in the data set with NF-κK is “does not affect”. Moreover, the “effect on CRE” value with CRE was “does not affect”. Also, in the data set on TGF-β, the “effect on TGF-β” value is on record as “does not affect”.
